Source: PubChem BioAssay (NCI)
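Test compounds were applied to cells in 96-well plates for 48 hours at 5 doses. GI50: concentration for 50% inhibition of growth. TGI: concentration producing complete growth inhibition.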

Experiments:
Assay in all cases: DTP human tumour cell line panel, 48 h
PC-3 prostate = system: PC-3 prostate
SR leukemia = system: SR leukemia
NCI-H226 lung = system: NCI-H226 lung
SK-MEL-5 melanoma = system: SK-MEL-5 melanoma
SF-539 CNS = system: SF-539 CNS
DU-145 prostate = system: DU-145 prostate
SK-OV-3 ovarian = system: SK-OV-3 ovarian
HOP-62 NSCLC = system: HOP-62 NSCLC
KM12 colon = system: KM12 colon
NCI-H23 lung = system: NCI-H23 lung

Structure (SMILES): CCn1c(-c2nonc2N)nc2c(C#CCN)ncc(OCCCN)c21
- GI50 (PC-3 prostate): > 25 µM
- TGI (PC-3 prostate): > 25 µM
- GI50 (SR leukemia): > 25 µM
- TGI (SR leukemia): > 25 µM
- GI50 (NCI-H226 lung): > 25 µM
- TGI (NCI-H226 lung): > 25 µM
- GI50 (SK-MEL-5 melanoma): > 25 µM
- TGI (SK-MEL-5 melanoma): > 25 µM
- GI50 (SF-539 CNS): > 25 µM
- TGI (SF-539 CNS): > 25 µM
- GI50 (DU-145 prostate): > 25 µM
- TGI (DU-145 prostate): > 25 µM
- GI50 (SK-OV-3 ovarian): > 25 µM
- TGI (SK-OV-3 ovarian): > 25 µM
- GI50 (HOP-62 NSCLC): > 25 µM
- TGI (HOP-62 NSCLC): > 25 µM
- GI50 (KM12 colon): > 25 µM
- TGI (KM12 colon): > 25 µM
- GI50 (NCI-H23 lung): > 25 µM
- TGI (NCI-H23 lung): > 25 µM

Structure (SMILES): NC(CO)Cc1cnc[nH]1 (stereo not drawn)
- GI50 (PC-3 prostate): > 100 µM
- TGI (PC-3 prostate): > 100 µM
- GI50 (SR leukemia): > 100 µM
- TGI (SR leukemia): > 100 µM
- GI50 (NCI-H226 lung): > 100 µM
- TGI (NCI-H226 lung): > 100 µM
- GI50 (SK-MEL-5 melanoma): > 100 µM
- TGI (SK-MEL-5 melanoma): > 100 µM
- GI50 (SF-539 CNS): > 100 µM
- TGI (SF-539 CNS): > 100 µM
- TGI (DU-145 prostate): > 100 µM
- GI50 (SK-OV-3 ovarian): > 100 µM
- TGI (SK-OV-3 ovarian): > 100 µM
- GI50 (HOP-62 NSCLC): > 100 µM
- TGI (HOP-62 NSCLC): > 100 µM
- GI50 (KM12 colon): > 100 µM
- TGI (KM12 colon): > 100 µM
- GI50 (NCI-H23 lung): > 100 µM
- TGI (NCI-H23 lung): > 100 µM

Structure (SMILES): CN1CCN(Cc2ccc(C(=O)Nc3cncc(C#Cc4cnc(N)c5ccccc45)c3)cc2C(F)(F)F)CC1
- GI50 (PC-3 prostate): 2.74 µM
- TGI (PC-3 prostate): 10.1 µM
- GI50 (SR leukemia): 2.09 µM
- TGI (SR leukemia): 5.17 µM
- GI50 (NCI-H226 lung): 3.18 µM
- TGI (NCI-H226 lung): 27.5 µM
- GI50 (SK-MEL-5 melanoma): 1.73 µM
- TGI (SK-MEL-5 melanoma): 3.12 µM
- GI50 (SF-539 CNS): 1.54 µM
- TGI (SF-539 CNS): 2.89 µM
- GI50 (DU-145 prostate): 1.78 µM
- TGI (DU-145 prostate): 3.49 µM
- GI50 (SK-OV-3 ovarian): 10.8 µM
- TGI (SK-OV-3 ovarian): 22.9 µM
- GI50 (HOP-62 NSCLC): 2.19 µM
- TGI (HOP-62 NSCLC): 4.42 µM
- GI50 (KM12 colon): 0.788 µM
- TGI (KM12 colon): 2.48 µM
- GI50 (NCI-H23 lung): 1.85 µM
- TGI (NCI-H23 lung): 4.41 µM

Structure (SMILES): COc1ccc(C(=O)Nc2ncc(Cc3ccc(Cl)cc3)s2)cc1
- GI50 (PC-3 prostate): 0.0528 µM
- TGI (PC-3 prostate): > 100 µM
- GI50 (SR leukemia): 0.0375 µM
- TGI (SR leukemia): > 70.4 µM
- GI50 (NCI-H226 lung): 0.0771 µM
- TGI (NCI-H226 lung): > 64.3 µM
- GI50 (SK-MEL-5 melanoma): 0.0419 µM
- TGI (SK-MEL-5 melanoma): 2.83 µM
- GI50 (SF-539 CNS): 0.047 µM
- TGI (SF-539 CNS): 0.516 µM
- GI50 (DU-145 prostate): 0.104 µM
- TGI (DU-145 prostate): > 100 µM
- GI50 (SK-OV-3 ovarian): 0.15 µM
- TGI (SK-OV-3 ovarian): > 100 µM
- GI50 (HOP-62 NSCLC): 0.0984 µM
- TGI (HOP-62 NSCLC): > 83.4 µM
- GI50 (KM12 colon): 0.0373 µM
- TGI (KM12 colon): > 37.1 µM
- GI50 (NCI-H23 lung): 0.239 µM
- TGI (NCI-H23 lung): > 100 µM

Structure (SMILES): N#CC(=C1SCS1)[N+](=O)[O-]
- GI50 (PC-3 prostate): 5.11 µM
- TGI (PC-3 prostate): 20.7 µM
- GI50 (SR leukemia): 0.568 µM
- TGI (SR leukemia): 4.31 µM
- GI50 (NCI-H226 lung): 16.7 µM
- TGI (NCI-H226 lung): 62.8 µM
- GI50 (SK-MEL-5 melanoma): 3.25 µM
- TGI (SK-MEL-5 melanoma): 13.8 µM
- GI50 (SF-539 CNS): 2.23 µM
- TGI (SF-539 CNS): 12.7 µM
- GI50 (DU-145 prostate): 2.56 µM
- TGI (DU-145 prostate): 10.1 µM
- GI50 (SK-OV-3 ovarian): 5.35 µM
- TGI (SK-OV-3 ovarian): 43.3 µM
- GI50 (HOP-62 NSCLC): 4.9 µM
- TGI (HOP-62 NSCLC): 21.1 µM
- GI50 (KM12 colon): 3.29 µM
- TGI (KM12 colon): 14.2 µM
- GI50 (NCI-H23 lung): 7.96 µM
- TGI (NCI-H23 lung): 34.8 µM

Structure (SMILES): CCCCCCCCCCCCCC(=S)NCCCC[C@H](NC(=O)OCc1ccccc1)C(=O)Nc1ccccc1
- GI50 (PC-3 prostate): 2.58 µM
- TGI (PC-3 prostate): > 100 µM
- GI50 (SR leukemia): 3.9 µM
- TGI (SR leukemia): > 100 µM
- GI50 (NCI-H226 lung): 5.71 µM
- TGI (NCI-H226 lung): > 100 µM
- GI50 (SK-MEL-5 melanoma): 8.39 µM
- TGI (SK-MEL-5 melanoma): > 100 µM
- GI50 (SF-539 CNS): 10.7 µM
- TGI (SF-539 CNS): > 100 µM
- GI50 (DU-145 prostate): 6.78 µM
- TGI (DU-145 prostate): > 100 µM
- GI50 (SK-OV-3 ovarian): 21.7 µM
- TGI (SK-OV-3 ovarian): > 100 µM
- GI50 (HOP-62 NSCLC): 16 µM
- TGI (HOP-62 NSCLC): > 100 µM
- GI50 (KM12 colon): 4.33 µM
- TGI (KM12 colon): > 100 µM
- GI50 (NCI-H23 lung): 4.14 µM
- TGI (NCI-H23 lung): > 100 µM

Structure (SMILES): O=C(/C=C/c1ccc(Cl)cc1)c1ccc(Cl)cc1Cl
- GI50 (PC-3 prostate): 11.2 µM
- TGI (PC-3 prostate): 31.7 µM
- GI50 (SR leukemia): 2.31 µM
- TGI (SR leukemia): 50 µM
- GI50 (NCI-H226 lung): 9.41 µM
- TGI (NCI-H226 lung): 18.1 µM
- GI50 (SK-MEL-5 melanoma): 4.89 µM
- TGI (SK-MEL-5 melanoma): 13.1 µM
- GI50 (SF-539 CNS): 9.68 µM
- TGI (SF-539 CNS): 17.9 µM
- GI50 (DU-145 prostate): 7.72 µM
- TGI (DU-145 prostate): 15.7 µM
- GI50 (SK-OV-3 ovarian): 6.84 µM
- TGI (SK-OV-3 ovarian): 14.5 µM
- GI50 (HOP-62 NSCLC): 10.9 µM
- TGI (HOP-62 NSCLC): 25.1 µM
- GI50 (KM12 colon): 5.73 µM
- TGI (KM12 colon): 13.8 µM
- GI50 (NCI-H23 lung): 4.55 µM
- TGI (NCI-H23 lung): 12.4 µM

Structure (SMILES): O=C(Nc1cccc(-n2ccc3c(NC(=O)c4ccccc4)nccc32)c1)c1cccc(C(F)(F)F)c1
- GI50 (PC-3 prostate): 0.0434 µM
- TGI (PC-3 prostate): > 100 µM
- GI50 (SR leukemia): 0.0284 µM
- GI50 (NCI-H226 lung): 0.153 µM
- TGI (NCI-H226 lung): > 68.6 µM
- GI50 (SK-MEL-5 melanoma): 0.0341 µM
- TGI (SK-MEL-5 melanoma): 0.152 µM
- GI50 (SF-539 CNS): 0.0314 µM
- TGI (SF-539 CNS): 2.14 µM
- GI50 (DU-145 prostate): 0.0363 µM
- TGI (DU-145 prostate): 0.168 µM
- GI50 (SK-OV-3 ovarian): 0.0331 µM
- TGI (SK-OV-3 ovarian): 15.1 µM
- GI50 (HOP-62 NSCLC): 0.0543 µM
- TGI (HOP-62 NSCLC): 16.5 µM
- GI50 (KM12 colon): 0.0341 µM
- TGI (KM12 colon): 1.4 µM
- GI50 (NCI-H23 lung): 0.0685 µM
- TGI (NCI-H23 lung): > 46.2 µM

Structure (SMILES): CN1CCN(CC#Cc2cccc(C(=O)c3cnn(-c4ccc(F)cc4)c3N)c2)CC1
- GI50 (PC-3 prostate): > 25 µM
- TGI (PC-3 prostate): > 25 µM
- GI50 (SR leukemia): > 25 µM
- TGI (SR leukemia): > 25 µM
- GI50 (NCI-H226 lung): > 25 µM
- TGI (NCI-H226 lung): > 25 µM
- GI50 (SK-MEL-5 melanoma): > 25 µM
- TGI (SK-MEL-5 melanoma): > 25 µM
- GI50 (SF-539 CNS): > 25 µM
- TGI (SF-539 CNS): > 25 µM
- GI50 (DU-145 prostate): > 25 µM
- TGI (DU-145 prostate): > 25 µM
- GI50 (SK-OV-3 ovarian): > 25 µM
- TGI (SK-OV-3 ovarian): > 25 µM
- GI50 (HOP-62 NSCLC): > 25 µM
- TGI (HOP-62 NSCLC): > 25 µM
- GI50 (KM12 colon): > 25 µM
- TGI (KM12 colon): > 25 µM
- GI50 (NCI-H23 lung): > 25 µM
- TGI (NCI-H23 lung): > 25 µM

Structure (SMILES): C=C1C(=O)O[C@H]2[C@H]1CC/C(CNC(=O)c1c[nH]c3ccc(F)cc13)=C\CC[C@@]1(C)O[C@@H]21
- GI50 (PC-3 prostate): 2.91 µM
- TGI (PC-3 prostate): 12.1 µM
- GI50 (SR leukemia): 1.01 µM
- TGI (SR leukemia): 4.78 µM
- GI50 (NCI-H226 lung): 13.9 µM
- TGI (NCI-H226 lung): 38.6 µM
- GI50 (SK-MEL-5 melanoma): 2.25 µM
- TGI (SK-MEL-5 melanoma): 5.56 µM
- GI50 (SF-539 CNS): 1.37 µM
- TGI (SF-539 CNS): 2.81 µM
- GI50 (DU-145 prostate): 1.09 µM
- TGI (DU-145 prostate): 2.35 µM
- GI50 (SK-OV-3 ovarian): 10.8 µM
- TGI (SK-OV-3 ovarian): 22.7 µM
- GI50 (HOP-62 NSCLC): 4.12 µM
- TGI (HOP-62 NSCLC): 19.7 µM
- GI50 (KM12 colon): 2.69 µM
- TGI (KM12 colon): 10.2 µM
- GI50 (NCI-H23 lung): 1.68 µM
- TGI (NCI-H23 lung): 3.8 µM
